Paper PMC8558867, “Development of BromoTag: A “Bump-and-Hole”–PROTAC System to Induce Potent, Rapid, and Selective Degradation of Tagged Target Proteins” (Journal of Medicinal Chemistry, 2021)
Values joined by “and” are separate entries in the source; they are usually repeats but may differ in a detail not shown here. Identical values can stand only once. Like-named read-outs stand apart in the source and are kept apart here.

Experiments:
22RV1 cells = experiment: CellTiter-Glo 2.0 cell viability assay, 22RV1; type: cell-based, human; settings: 22RV1, up to 1–10 μM
BromoTag-Brd2 [1] = experiment: Recovery (washout) assay; type: cell-based, human
Protocol: This was performed in the genotype-verified heterozygous BromoTag-Brd2 HEK293 cell line. Heterozygous BromoTag-Brd2 HEK293 cells were plated at a density of 5 × 10^5 cells per well of a six-well plate a day before initiating the recovery assay. […] During treatment, the cells were kept at 37 °C, 5% CO2, and 95% humidity.
All cells were harvested on ice with RIPA lysis and extraction buffer (Thermo Fisher Scientific, 89901) supplemented with protease inhibitor cocktail (Merck, 11697498001) and Benzonase Nuclease (Sigma, E1014) before being stored at −20 °C prior to use. Total protein quantity was determined using the BCA protein assay (#23225, Pierce, Rockford, Illinois). The protein concentration was determined using the BCA assay (Thermo Fisher Scientific, 23225). The samples were then prepared and loaded onto NuPAGE 4–12% bis–tris Midi gels (Thermo Fisher Scientific, WG1403A), followed by the transfer of proteins onto nitrocellulose membranes (EMD Millipore). The membranes were blocked for 1 h prior to incubation with the primary antibodies using 5% Milk TBST. […] All western blots were analyzed for band intensities using Image Lab from Bio-Rad (LI-COR, Biosciences). The data extracted from these blots were then plotted and analyzed using Prism (v. 8.2.0, GraphPad).

VHL with Brd4^BD2 L387A = target: T1, VHL with Brd4^BD2 L387A (Homo sapiens, UniProt O60885+P40337, L387A); experiment: FP competitive binding assay, ternary complex binding (compound preincubated with Brd4^BD2 L387A)
T1 construct: N-terminally His6-tagged VHL (54–213); His6 (N, cleaved yes); made in house; host or cells: E. coli

[2] = system: proteome of heterozygous BromoTag-Brd2 HEK293 cells; experiment: Multiplexed TMT labeling mass spectrometry proteomics; type: cell-based, human; settings: 1 μM, 2 h
Protocol: To do this, we subjected our heterozygous BromoTag-Brd2 HEK293 cell line to a 1 μM treatment of 46, its non-degrading control 52, or vehicle (DMSO) for 2 h prior to harvest. The harvested lysate was then subjected to multiplexed tandem mass tag (TMT) labeling mass spectrometry to enable quantitative and unbiased analysis of protein levels in each condition.
CRISPR-modified BromoTag-Brd2 HEK293 cells (5 × 10^6) were seeded on a […] 24 h before treatment. The cells were treated with either DMSO, 1 μM AGB1, or 1 μM cis-AGB1. After 2 h of treatment, the cells were washed twice with PBS. The cells were lysed in 150 μL of 100 mM TEAB and 5% (w/v) sodium dodecyl sulfate. The lysate was sonicated for 10 s and then centrifuged at 15,000g for 5 min with the supernatant collected post-centrifugation. The samples were then quantified using a micro-BCA protein assay kit (Thermo Fisher Scientific); 300 μg of each sample was then reduced, alkylated, and then digested using the Strap mini protocol (protifi) as described by the manufacturer (protifi) with some modification. The samples were double-digested with trypsin (1:40) first overnight and then for another 6 h with the same ratio (1:40) in 50 mM TEAB buffer. The peptides were quantified using a quantitative fluorometric peptide assay (Thermo Fisher Scientific). […]

BromoTag-Brd2 [3] = experiment: Dose–response degradation assay (western blot, 6 h) in heterozygous BromoTag-Brd2 HEK293 cells; type: cell-based, human; settings: 6 h; for DC50: read-out: DC50 of BromoTag-Brd2 degradation (DC50, 6h), single stereoisomers
[4] = eight-point 10 μM to 1 nM, mean ±S.E. of two repeats

SMILES: CC[C@@H](C(=O)OCCOCCOCCOCC(=O)N[C@H](C(=O)N1C[C@H](O)C[C@H]1C(=O)NCc1ccc(-c2scnc2C)cc1)C(C)(C)C)[C@@H]1N=C(c2ccc(Cl)cc2)c2c(sc(C)c2C)-n2c(C)nnc21 [AGB1 (46), (S)-13-((2S,4R)-4-Hydroxy-2-((4-(4-methylthiazol-5-yl)benzyl)carbamoyl)pyrrolidine-1-carbonyl)-14,14-dimethyl-11-oxo-3,6,9-trioxa-12-azapentadecyl (R)-2-((S)-4-(4-chlorophenyl)-2,3,9-trimethyl-6H-thieno[3,2-f][1,2,4]triazolo[4,3-a][1,4]diazepin-6-yl)butanoate]
- cytotoxicity (22RV1 cells): lack of cytotoxicity
- time after washout at which BromoTag-Brd2 protein levels recover (BromoTag-Brd2 [1]; 200 nM for 3 h, then washout): 24 h
- on-target degradation without washout (BromoTag-Brd2 [1]; 200 nM, no washout): complete and durable on-target degradation for up to 72 h
- α (FP binding) (VHL with Brd4^BD2 L387A; cooperativity, Kd binary/Kd ternary, supplementary CSV): 11.1
- Kd (VHL with Brd4^BD2 L387A; preincubated with Brd4^BD2 L387A, mean ±S.E.M., N = 4, read-out: ternary binding affinity Kd): 11 nM
- cooperativity (α) (VHL with Brd4^BD2 L387A; α = Kd binary/Kd ternary): 11.1
- proteins significantly degraded among the 6621 proteins quantified [2]: only Brd2 was shown to be significantly degraded
- pDC50 (Ab: Brd^4BD2 L387A) (BromoTag-Brd2 [3]; [4]): 7.8 ± 0.2
- pDC50 (Ab: BromoTag-Brd2) (BromoTag-Brd2 [3]; [4]): 7.9 ± 0.1
- DC50 (BromoTag-Brd2 [3]): 12.6 to 14.5 nM
- DC50 (BromoTag-Brd2 [3]; listed as 46): 13 to 15 nM and ~13 nM
